Test results reported in patent publication US20170320870A1 (Medical Research Council Technology, priority 2009, published 2017).

Target: T1, LRRK2 wild type (recombinant human, catalytic domain amino acids 970-2527, GST-tagged) (Homo sapiens, UniProt Q5S007)
T1 construct: The wild type used was recombinant human, catalytic domain (amino acids 970-2527) GST-tagged, expressed in insect cells; GST; purchased Invitrogen Corporation PV4873; host or cells: insect cells
Experiment: LRRK2 wild type protein kinase assay ([γ-33P] ATP, peptide substrate […]), IC50
Format: biochemical
Details: LRRK2 (variant not given); read-out: Potency score, LRRK2 IC50
Description: All LRRK2 protein kinases were of human origin and were sourced from Invitrogen Corporation (Carlsbad, Calif. 92008 USA) unless otherwise indicated. The active mutant used was recombinant human, catalytic domain (amino acids 970-2527) containing a G2019S mutation, GST-tagged, expressed in insect cells (Invitrogen Cat#PV4881). The wild type used was recombinant human, catalytic domain (amino acids 970-2527) GST-tagged, expressed in insect cells (Invitrogen Cat#PV4873). The kinase dead mutant used was recombinant human, catalytic domain (amino acids 970-2527) containing a D1994A mutation, GST-tagged, expressed in insect cells (Invitrogen Cat#PM4041AE). No special measures were taken to activate any of the kinases.
All assays were carried out at room temperature (˜21° C.) and were linear with respect to time and enzyme concentration under the conditions used. Assays were performed for 180 min in a 96 well format. LRRK2 was present at a concentration of approximately 5 nM. The enzyme was diluted and assayed in 50 mM Tris-HCl pH7.5, 0.1 mM EGTA, 1 mM DTT and 10 mM MgCl2. The concentration of magnesium chloride in the assay was 10 mM. The [γ-33P] […] The peptide substrate in the assay was […] at 100 μM.
The assays were initiated with Mg/ATP and stopped by the addition of 25 μl/well 50% orthophosphoric acid. Reactions were harvested onto Whatman P81 Unifilter Plates (Fisher Scientific. Loughborough, LE115RG, UK. Cat# FDU-105-020U) using a Tomtec harvester. (Tomtec Hamden, Conn. 06514. USA) Plates were counted using a Perkin Elmer Top Count NX7. (Perkin Elmer, Shelton Conn. 06484-4794 USA)
IC50 values of inhibitors were determined after carrying out assays at 10 different concentrations of each compound in duplicate.

T1 sequence (Q5S007 970-2527): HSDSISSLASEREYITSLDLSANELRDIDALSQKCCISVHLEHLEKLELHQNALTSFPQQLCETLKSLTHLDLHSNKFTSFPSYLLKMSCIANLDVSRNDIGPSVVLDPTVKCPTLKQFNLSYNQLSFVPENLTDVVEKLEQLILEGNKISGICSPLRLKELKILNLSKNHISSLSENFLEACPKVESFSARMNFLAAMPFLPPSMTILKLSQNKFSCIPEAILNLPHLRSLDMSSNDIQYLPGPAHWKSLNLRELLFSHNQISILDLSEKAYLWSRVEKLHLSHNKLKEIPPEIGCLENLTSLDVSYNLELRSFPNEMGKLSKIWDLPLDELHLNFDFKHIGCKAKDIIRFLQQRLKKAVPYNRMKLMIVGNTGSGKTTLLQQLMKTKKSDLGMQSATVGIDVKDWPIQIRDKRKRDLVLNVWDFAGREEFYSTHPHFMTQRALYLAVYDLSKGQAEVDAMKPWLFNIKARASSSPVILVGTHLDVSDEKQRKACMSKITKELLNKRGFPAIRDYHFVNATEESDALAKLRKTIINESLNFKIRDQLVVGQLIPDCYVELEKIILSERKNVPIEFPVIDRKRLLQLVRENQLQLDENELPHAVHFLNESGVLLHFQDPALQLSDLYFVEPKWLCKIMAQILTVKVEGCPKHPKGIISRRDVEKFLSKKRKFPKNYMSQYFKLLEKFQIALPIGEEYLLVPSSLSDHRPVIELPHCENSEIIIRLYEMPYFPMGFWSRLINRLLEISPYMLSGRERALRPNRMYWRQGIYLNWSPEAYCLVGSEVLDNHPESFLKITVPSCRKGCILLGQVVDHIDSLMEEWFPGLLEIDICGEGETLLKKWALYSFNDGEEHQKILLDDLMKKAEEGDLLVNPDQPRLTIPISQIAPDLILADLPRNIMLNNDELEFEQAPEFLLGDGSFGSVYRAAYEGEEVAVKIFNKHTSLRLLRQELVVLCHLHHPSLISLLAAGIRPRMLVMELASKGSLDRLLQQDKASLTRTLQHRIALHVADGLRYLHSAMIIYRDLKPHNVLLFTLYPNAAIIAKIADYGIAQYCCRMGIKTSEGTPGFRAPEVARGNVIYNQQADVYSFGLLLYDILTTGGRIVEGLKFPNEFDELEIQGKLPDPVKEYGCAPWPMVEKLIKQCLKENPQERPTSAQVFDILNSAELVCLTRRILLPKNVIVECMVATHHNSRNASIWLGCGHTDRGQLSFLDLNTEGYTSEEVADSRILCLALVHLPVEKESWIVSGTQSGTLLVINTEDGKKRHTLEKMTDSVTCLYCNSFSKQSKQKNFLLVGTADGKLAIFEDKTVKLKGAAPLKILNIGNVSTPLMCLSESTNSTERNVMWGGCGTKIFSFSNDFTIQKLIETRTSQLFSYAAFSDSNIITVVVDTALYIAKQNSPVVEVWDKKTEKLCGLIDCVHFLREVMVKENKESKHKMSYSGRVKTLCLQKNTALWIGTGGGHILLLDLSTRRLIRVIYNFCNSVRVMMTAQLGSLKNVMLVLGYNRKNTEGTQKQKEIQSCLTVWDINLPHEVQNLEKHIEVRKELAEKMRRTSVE

`Cc1n[nH]c2ccnc(NC3CCC3)c12` [Example 22, Cyclobutyl-(3-methyl-1H-pyrazolo[4,3-c]pyridin-4-yl)-amine] showed an IC50 of 100 to 1000 nM.
In the case of `O=C(Nc1ccc(CCc2n[nH]c3ccnc(NC4CCCCC4)c23)cc1)C1CC1` [Example 274, Cyclopropanecarboxylic acid {4-[2-(4-cyclohexylamino-1H-pyrazolo[4,3-c]pyridin-3-yl)-ethyl]-phenyl}-amide], the IC50 is reported as < 100 nM.
`Cc1n[nH]c2ccnc(NC(C)CC(C)C)c12` (centres unmarked) [Example 45, (1,3-Dimethyl-butyl)-(3-methyl-1H-pyrazolo[4,3-c]pyridin-4-yl)-amine] was tested, and the IC50 was 1000 to 10000 nM.
`Cc1n[nH]c2ccnc(N[C@@H](C)C3CC3)c12` [Example 42, ((S)-1-Cyclopropyl-ethyl)-(3-methyl-1H-pyrazolo[4,3-c]pyridin-4-yl)-amine] gave an IC50 of 100 to 1000 nM.
In the case of `Cc1n[nH]c2ccnc(-c3ccco3)c12` [Example 48, 4-Furan-2-yl-3-methyl-1H-pyrazolo[4,3-c]pyridine], the IC50 is reported as 100 to 1000 nM.
In the case of `CCCNc1nccc2[nH]nc(C)c12` [Example 16, (3-Methyl-1H-pyrazolo[4,3-c]pyridin-4-yl)-propyl-amine], the IC50 is reported as 100 to 1000 nM.
For `O=C(Nc1ccc(CCc2n[nH]c3ccnc(NC4CCCCC4)c23)cc1)c1ccccn1` [Example 265, Pyridine-2-carboxylic acid {4-[2-(4-cyclohexylamino-1H-pyrazolo[4,3-c]pyridin-3-yl)-ethyl]-phenyl}-amide], the IC50 was < 100 nM.
In the case of `Cn1ncnc1C1CCCN(C(=O)CCc2n[nH]c3ccnc(NC4CCCCC4)c23)C1` (centres unmarked) [Example 239, 3-(4-Cyclohexylamino-1H-pyrazolo[4,3-c]pyridin-3-yl)-1-[3-(2-methyl-2H-1,2,4-triazol-3-yl)-piperidin-1-yl]-propan-1-one], the IC50 is reported as 100 to 1000 nM.
`Cc1n[nH]c2ccnc(Nc3ccccc3)c12` [Example 70, (3-Methyl-1H-pyrazolo[4,3-c]pyridin-4-yl)-phenyl-amine] gave an IC50 of 100 to 1000 nM.
In the case of `CC(C)C(=O)Nc1ccc(CCc2n[nH]c3ccnc(NC4CCCCC4)c23)cc1` [Example 263, N-{4-[2-(4-Cyclohexylamino-1H-pyrazolo[4,3-c]pyridin-3-yl)-ethyl]-phenyl}-isobutyramide], the IC50 is reported as 100 to 1000 nM.
`Cc1n[nH]c2ccnc(Nc3cccc(C(F)(F)F)c3)c12` [Example 66, (3-Methyl-1H-pyrazolo[4,3-c]pyridin-4-yl)-(3-trifluoromethyl-phenyl)-amine] showed an IC50 of 100 to 1000 nM.
`CC1CCN(C(=O)CCc2n[nH]c3ccnc(NC4CCCCC4)c23)CC1` [Example 192, 3-(4-Cyclohexylamino-1H-pyrazolo[4,3-c]pyridin-3-yl)-1-(4-methyl-piperidin-1-yl)-propan-1-one] showed an IC50 of 100 to 1000 nM.
`Cc1n[nH]c2ccnc(NC3CCCCC3)c12` [Example 3, Cyclohexyl-(3-methyl-1H-pyrazolo[4,3-c]pyridin-4-yl)-amine] showed an IC50 of 100 to 1000 nM.
With `CC(=O)Nc1ccc(CCc2n[nH]c3ccnc(NC4CCCCC4)c23)cc1` [Example 262, N-{4-[2-(4-Cyclohexylamino-1H-pyrazolo[4,3-c]pyridin-3-yl)-ethyl]-phenyl}-acetamide] the IC50 was < 100 nM.
`Cc1n[nH]c2ccnc(Nc3ccccn3)c12` [Example 94, (3-Methyl-1H-pyrazolo[4,3-c]pyridin-4-yl)-pyridin-2-yl-amine] showed an IC50 of 1000 to 10000 nM.
`Cc1n[nH]c2ccnc(Nc3cccc(N4CCOCC4)c3)c12` [Example 80, (3-Methyl-1H-pyrazolo[4,3-c]pyridin-4-yl)-(3-morpholin-4-yl-phenyl)-aniline] was tested, and the IC50 was 1000 to 10000 nM.
`O=C(CCc1n[nH]c2ccnc(NC3CCCCC3)c12)N1CCC(C(F)(F)F)CC1` [Example 203, 3-(4-Cyclohexylamino-1H-pyrazolo[4,3-c]pyridin-3-yl)-1-(4-trifluoromethyl-piperidin-1-yl)-propan-1-one] was tested, and the IC50 was 100 to 1000 nM.
In the case of `N#Cc1ccc(-c2n[nH]c3ccnc(NC4CCCCC4)c23)cc1` [Example 158], the IC50 is reported as 1000 to 10000 nM.
For `Cc1n[nH]c2ccnc(NCc3ccc(F)cc3)c12` [Example 316, (4-Fluoro-benzyl)-(3-methyl-1H-pyrazolo[4,3-c]pyridin-4-yl)-amine], the IC50 was 1000 to 10000 nM.
`c1cc2[nH]nc(-c3ccc(N4CCOCC4)cc3)c2c(NC2CCCCC2)n1` [Example 152, Cyclohexyl-[3-(4-morpholin-4-yl-phenyl)-1H-pyrazolo[4,3-c]pyridin-4-yl]-amine] showed an IC50 of 100 to 1000 nM.
`Cc1n[nH]c2ccnc(Nc3ccc(C#N)cc3)c12` [Example 348, 4-(3-Methyl-1H-pyrazolo[4,3-c]pyridin-4-ylamino)-benzonitrile] was tested, and the IC50 was 1000 to 10000 nM.
In the case of `c1ccc(Cn2cc(-c3n[nH]c4ccnc(NC5CCCCC5)c34)cn2)nc1` [Example 234, Cyclohexyl-[3-(1-pyridin-2-ylmethyl-1H-pyrazol-4-yl)-1H-pyrazolo[4,3-c]pyridin-4-yl]-amine], the IC50 is reported as 100 to 1000 nM.
For `Cc1n[nH]c2ccnc(NCCC3CCCN3C)c12` (centres unmarked) [Example 25, (3-Methyl-1H-pyrazolo[4,3-c]pyridin-4-yl)-[2-(1-methyl-pyrrolidin-2-yl)-ethyl]-amine], the IC50 was 1000 to 10000 nM.
`CC(=O)Nc1cccc(-c2n[nH]c3ccnc(NC4CCCCC4)c23)c1` [Example 137, N-[3-(4-Cyclohexylamino-1H-pyrazolo[4,3-c]pyridin-3-yl)-phenyl]-acetamide] showed an IC50 of 1000 to 10000 nM.
Compound `CCC[C@H](C)Oc1nccc2[nH]nc(C)c12` [Example 285, 3-Methyl-4-((S)-1-methyl-butoxy)-1H-pyrazolo[4,3-c]pyridine] has an IC50 of 100 to 1000 nM.
`c1cncc(-c2n[nH]c3ccnc(NC4CCCCC4)c23)c1` [Example 135, Cyclohexyl-(3-pyridin-3-yl-1H-pyrazolo[4,3-c]pyridin-4-yl)-amine] showed an IC50 of 100 to 1000 nM.
With `Cc1n[nH]c2ccnc(OCCC(C)C)c12` [Example 282, 3-Methyl-4-(3-methyl-butoxy)-1H-pyrazolo[4,3-c] pyridine] the IC50 was 100 to 1000 nM.
In the case of `Cc1n[nH]c2ccnc(Nc3cccc(O)c3)c12` [Example 77, 3-(3-Methyl-1H-pyrazolo[4,3-c]pyridin-4-ylamino)-phenol], the IC50 is reported as 100 to 1000 nM.
In the case of `O=C(CCc1n[nH]c2ccnc(NC3CCCCC3)c12)N1CCC(c2cccnc2)C1` (centres unmarked) [Example 207, 3-(4-Cyclohexylamino-1H-pyrazolo[4,3-c]pyridin-3-yl)-1-(3-pyridin-3-yl-pyrrolidin-1-yl)-propan-1-one], the IC50 is reported as < 100 nM.
In the case of `FC(F)(F)Oc1ccccc1-c1n[nH]c2ccnc(NC3CCCCC3)c12` [Example 151, Cyclohexyl-[3-(2-trifluoromethoxy-phenyl)-1H-pyrazolo[4,3-c]pyridin-4-yl]-amine], the IC50 is reported as 1000 to 10000 nM.
Compound `c1ccc2c(-c3n[nH]c4ccnc(NC5CCCCC5)c34)cncc2c1` [Example 164, Cyclohexyl-(3-isoquinolin-4-yl-1H-pyrazolo[4,3-c]pyridin-4-yl)-amine] has an IC50 of 1000 to 10000 nM.
`Cc1n[nH]c2ccnc(OC3CCCCC3)c12` [Example 114, 4-Cyclohexyloxy-3-methyl-1H-pyrazolo[4,3-c]pyridine] was tested, and the IC50 was < 100 nM.
For `COc1cccc(-c2n[nH]c3ccnc(NC4CCCCC4)c23)c1` [Example 146, Cyclohexyl-[3-(3-methoxy-phenyl)-1H-pyrazolo[4,3-c]pyridin-4-yl]-amine], the IC50 was 100 to 1000 nM.
`CC(=O)Nc1cccc(Nc2nccc3[nH]nc(C)c23)c1` [Example 78, N-[3-(3-Methyl-1H-pyrazolo[4,3-c]pyridin-4-ylamino)-phenyl]-acetamide] gave an IC50 of 1000 to 10000 nM.
For `Cc1n[nH]c2ccnc(OC3CCCC3)c12` [Example 115, 4-Cyclopentyloxy-3-methyl-1H-pyrazolo[4,3-c] pyridine], the IC50 was < 100 nM.
`c1cc(CCc2n[nH]c3ccnc(NC4CCCCC4)c23)ccn1` [Example 218, Cyclohexyl-[3-(2-pyridin-4-yl-ethyl)-1H-pyrazolo[4,3-c]pyridin-4-yl]-amine] gave an IC50 of 100 to 1000 nM.
`CN(CCc1ccccc1)C(=O)CCc1n[nH]c2ccnc(NC3CCCCC3)c12` [Example 189, 3-(4-Cyclohexylamino-1H-pyrazolo[4,3-c]pyridin-3-yl)-N-methyl-N-phenethyl-propionamide] showed an IC50 of 1000 to 10000 nM.
Work on `CC1CCCCN1C(=O)CCc1n[nH]c2ccnc(NC3CCCCC3)c12` (centres unmarked) [Example 198, 3-(4-Cyclohexylamino-1H-pyrazolo[4,3-c]pyridin-3-yl)-1-(2-methyl-piperidin-1-yl)-propan-1-one] yielded an IC50 of 100 to 1000 nM.
`COCCC(=O)N1CCC(Nc2nccc3[nH]nc(C)c23)CC1` [Example 102, 3-Methoxy-1-[4-(3-methyl-1H-pyrazolo[4,3-c]pyridin-4-ylamino)-piperidin-1-yl]-propan-1-one] was tested, and the IC50 was 1000 to 10000 nM.
For `Fc1cc(C(F)(F)F)ccc1-c1n[nH]c2ccnc(NC3CCCCC3)c12` [Example 166, Cyclohexyl-[3-(2-fluoro-4-trifluoromethyl-phenyl)-1H-pyrazolo[4,3-c]pyridin-4-yl]-amine], the IC50 was 1000 to 10000 nM.
`Cc1n[nH]c2ccnc(N[C@H](C)C(C)C)c12` [Example 39, ((R)-1,2-Dimethyl-propyl)-(3-methyl-1H-pyrazolo[4,3-c]pyridin-4-yl)-amine] showed an IC50 of 100 to 1000 nM.
